Earlier results on 82 molecules are cited in the PKSmart pharmacokinetics tables (Seal et al. 2025).

Where a SMILES comes first, the peptide text is derived from it. Bridges are numbered along the chain shown (N, C = ends).

This series is described as follows: not given per row; by the article one of three: Lombardo et al. 2013, J Clin Pharmacol 53:178, doi 10.1177/0091270012440282; 'New Drugs at FDA', novel drug approvals for 2021 and 2022 (the article's reference 43); Yap, Li, Chen 2006, J Mol Graph Model 24:383, doi 10.1016. To be noted: human; for clearance / Vd / half-life: in vivo; for fraction unbound: plasma.

As usually defined, the clearance is a measure of how efficiently the substance is removed, as volume per time. `O=C(O)CCCCCCNC1c2ccccc2CCc2ccccc21`: the clearance was 29.6 mL/min/kg.
One may read the Vd as the apparent volume that relates the amount in the body to the concentration in plasma or blood. Broadly, the half-life is how long it takes for the measured level to halve. Take `CN1CCN(c2ccc(Nc3ncc4cc5n(c4n3)C3(CCCCC3)CNC5=O)nc2)CC1`: the Vd was 18.8 L/kg, the clearance was 41.7 mL/min/kg and the half-life is 14 h.
As to `CC(C)(C)NC[C@@H](O)c1cc(O)cc(O)c1`, the clearance was 4 mL/min/kg.
For the molecule `NC(=O)c1ncn([C@H]2O[C@H](CO)[C@@H](O)[C@@H]2O)c1N`, the clearance is 41.7 mL/min/kg.
In the case of `CCOC(=O)C(CCc1ccccc1)NC(C)C(=O)N1Cc2ccccc2CC1C(=O)O` (stereo not given), the clearance is 26.4 mL/min/kg.
Regarding `Oc1ccc2c(c1)C13CCCC[C@@]1(O)[C@H](C2)N(CC1CCC1)CC3`, the clearance was 40 mL/min/kg.
What is called fraction unbound is free concentration divided by total concentration. For the molecule `CNCc1cc(-c2ccccc2F)n(S(=O)(=O)c2cccnc2)c1`, the Vd was 13 L/kg, the clearance is 22.6 mL/min/kg, the half-life is 6.8 h and the fraction unbound was 0.14.
As for `CC(C)NC[C@@H](O)COc1ccc(COCCOC(C)C)cc1`, the clearance is 3.55 mL/min/kg.
Consider `C[C@@H](CCc1ccc(O)cc1)NCCc1ccc(O)c(O)c1`, for which the clearance was 59 mL/min/kg.
Take `CO[C@]1(NC(O)=c2sc(=C(C(N)=O)C(=O)O)s2)C(=O)N2C(C(=O)O)=C(CSc3nnnn3C)CS[C@@H]21`: the clearance is 0.63 mL/min/kg.
As to `CC1(C)S[C@H]2C(NC(=O)C(NC(=O)N3CCNC3=O)c3ccccc3)C(=O)N2C1C(=O)O` (stereo not given in full), the clearance was 2.52 mL/min/kg.
As for `C[C@](O)(CS(=O)(=O)c1ccc(F)cc1)C(=O)Nc1ccc(C#N)c(C(F)(F)F)c1`, the clearance was 3.67 mL/min/kg.
On to `NC(=O)c1cnn([C@H]2O[C@@H](CO)[C@@H](O)[C@@H]2O)n1`, for which the clearance is 5 mL/min/kg.
Take `CC(C)NC[C@@H](O)COc1ccc(CCOCC2CC2)cc1`: the clearance was 4.7 mL/min/kg.
For `CCCCC1(CCCC)CS(=O)(=O)c2ccc(N(C)C)cc2[C@@H](c2ccc(OCc3ccc(C[N+]45CCN(CC4)CC5)cc3)cc2)[C@H]1O`, the half-life is 1.6 h and the free fraction (fraction unbound) is 0.09.
In the case of `COC(=O)Nc1c(N)nc(-c2nn(Cc3ccccc3F)c3ncc(F)cc23)nc1N`, the Vd was 0.73 L/kg, the clearance was 0.44 mL/min/kg, the half-life was 30 h and the fraction unbound was 0.02.
As to `C[C@]12C=CC(=O)C=C1CC[C@H]1[C@@H]3C[C@@H](O)[C@](O)(C(=O)CO)[C@@]3(C)C[C@@H](O)[C@@]12F`, the clearance was 13.1 mL/min/kg.
Turning to `Cc1c(OCC(F)(F)F)ccnc1C[S@@+](O)c1nc2ccccc2[n-]1`, the clearance was 6.23 mL/min/kg.
For `COc1cc2c(cc1OC)C(=O)C(CC1CCN(Cc3ccccc3)CC1)C2` (stereo not given), the clearance was 2.53 mL/min/kg.
Regarding `COc1ccccc1OCCNC[C@@H](O)COc1cccc2[nH]c3ccccc3c12`, the clearance is 8.7 mL/min/kg.
Turning to `NCCCCC(NC(=O)C1CCCN1C(=O)C1CSSCC(NC(=O)CNC(=O)CNC(=O)CN)C(=O)NC(Cc2ccc(O)cc2)C(=O)NC(Cc2ccccc2)C(=O)NC(CCC(N)=O)C(=O)NC(CC(N)=O)C(=O)N1)C(=O)NCC(N)=O` (stereo not given) (H-GGGCYFQNCPKG-NH2; disulfide 4-9; configuration not given here), the Vd is 0.11 L/kg, the clearance was 7.61 mL/min/kg and the half-life is 0.9 h.
Consider `CCN(CC)CCC[C@@H](C)Nc1ccnc2cc(Cl)ccc12`, for which the clearance is 7.09 mL/min/kg.
With `O=C(O)C1C[C@H](C2CCCCC2)CN1C(=O)C[P@](=O)(O)CCCCc1ccccc1` (stereo not given in full), the clearance is 0.46 mL/min/kg.
For `O=C(O)c1cc(O)c2c(c1)C(=O)c1cccc(O)c1C2=O`, the clearance was 0.38 mL/min/kg.
`CC(C)Oc1ccc(-c2nn([C@@H](C)c3oc4ccc(F)cc4c(=O)c3-c3cccc(F)c3)c3ncnc(N)c23)cc1F`: the Vd is 5.2 L/kg, the clearance is 4.31 mL/min/kg, the half-life is 91 h and the fraction unbound is 0.01.
`O=C(O)c1ccccc1Nc1cccc(C(F)(F)F)c1`: the clearance was 1.43 mL/min/kg.
`Cc1nc(C)c2c(n1)N(Cc1ccc(-c3ccccc3-c3nnn[nH]3)cc1)C(=O)CC2`: the clearance was 7.17 mL/min/kg.
On to `O=C(NC(C(=O)NC1C(=O)N2C(C(=O)O)C(=C[n+]3ccc(CCS(=O)(=O)[O-])cc3)CSC12)c1ccccc1)c1nc[nH]c1C(=O)O` (stereo not given), for which the Vd is 0.21 L/kg and the clearance is 1.7 mL/min/kg.
On to `C=CC(=O)Nc1cc(Nc2ncc(C(=O)OC(C)C)c(-c3cn(C)c4ccccc34)n2)c(OC)cc1N(C)CCN(C)C`, for which the Vd was 58.5 L/kg, the clearance was 38.3 mL/min/kg, the half-life was 18 h and the fraction unbound was 0.01.
Consider `CCN1C[C@@H](CCN2CCOCC2)C(c2ccccc2)(c2ccccc2)C1=O`, for which the clearance is 5.75 mL/min/kg.
Turning to `O=C1Nc2ccc(Cl)cc2[C@@](C#CC2CC2)(C(F)(F)F)O1`, the clearance was 3.1 mL/min/kg.
Consider `C[C@@H](O)C1C(=O)N2C(C(=O)O)=C(S[C@@H]3CNC(C(=O)N(C)C)C3)[C@H](C)[C@@H]12` (stereo not given in full), for which the clearance was 3.49 mL/min/kg.
On to `C=CCc1ccccc1OC[C@H](O)CNC(C)C`, for which the clearance is 6.47 mL/min/kg.
In the case of `NC(=O)N1c2ccccc2C=Cc2ccccc21`, the clearance is 1.11 mL/min/kg.
With `CCOc1ncc(C)c2c1[C@H](c1ccc(C#N)cc1OC)C(C(N)=O)C(C)=N2` (stereo not given in full), the Vd was 0.88 L/kg, the clearance is 6.94 mL/min/kg, the half-life was 2.5 h and the fraction unbound was 0.08.
`COc1cc(Cc2cnc(N)nc2N)cc(OC)c1Br`: the clearance was 0.6 mL/min/kg.
On to `CCOc1cc(N)c(Cl)cc1C(=O)NC[C@H]1CN(Cc2ccc(F)cc2)CCO1`, for which the clearance was 16.2 mL/min/kg.
As to `CC(C)NC[C@@H](O)COc1cccc2ccccc12`, the clearance is 13.7 mL/min/kg.
Consider `CCC(C)C(=O)O[C@@H]1C[C@@H](O)C=C2C=C[C@@H](C)[C@H](CC[C@H](O)C[C@H](O)CC(=O)O)[C@H]21` (stereo not given in full), for which the clearance was 8.5 mL/min/kg.
In the case of `CCN(CC)C(=O)N[C@H]1C[C@@H]2c3cccc4[nH]cc(c34)C[C@H]2N(C)C1`, the clearance is 16 mL/min/kg.
As to `Nc1nnc(-c2cccc(Cl)c2Cl)c(N)n1`, the clearance was 0.51 mL/min/kg.
For the molecule `C[C@H]1CN(c2cc3c(cc2F)c(=O)c(C(=O)O)cn3-c2ccc(F)cc2F)CCN1`, the clearance was 3.19 mL/min/kg.
Consider `Cc1cccc(C)c1OC[C@@H](C)N`, for which the clearance is 6.3 mL/min/kg.
With `Cc1c(C(C)C)c(=O)n(-c2ccccc2)n1C`, the clearance is 11 mL/min/kg.
In the case of `C[C@]12CC[C@@H]3c4ccc(O)cc4CC[C@H]3[C@@H]1[C@@H](O)[C@@H](O)[C@@H]2O`, the half-life is 27 h and the fraction unbound was 0.52.
In the case of `C[C@@H]1[C@H](c2c(F)ccc(F)c2F)CC(NC(=O)c2cnc3c(c2)C[C@@]2(C3)C(=O)Nc3ncccc32)C(=O)N1CC(F)(F)F` (stereo not given in full), the Vd was 4.87 L/kg, the clearance is 5.28 mL/min/kg, the half-life was 11 h and the fraction unbound was 0.05.
`COc1ccc(C(=O)Nc2ccccc2CC[C@@H]2CCCCN2C)cc1`: the clearance was 177 mL/min/kg.
With `C=CC(=O)N1CCN(c2nc(=O)n(-c3c(C)ccnc3C(C)C)c3nc(-c4c(O)cccc4F)c(F)cc23)[C@@H](C)C1`, the Vd is 3.52 L/kg, the clearance is 7.28 mL/min/kg and the unbound share (fraction unbound) is 0.11.
Consider `CN[C@H](C)[C@H](O)c1ccccc1`, for which the clearance was 7.33 mL/min/kg.
Consider `NC[C@H](CC(=O)O)c1ccc(Cl)cc1`, for which the clearance is 2.72 mL/min/kg.
`CCN1CCC[C@@H]1CNC(=O)c1cc(S(=O)(=O)CC)c(N)cc1OC`: the clearance was 7.8 mL/min/kg.
`COc1ccc(NC(=O)\C=C(C)/C=C/C=C(C)\C=C\C2=C(C)CCCC2(C)C)cc1`: the clearance is 98.9 mL/min/kg.
As to `CC(C)CC(NC(=O)C(Cc1ccccc1)NC(=O)C(N)Cc1ccccc1)C(=O)NC(CCCCN)C(=O)N1CCC(N)(C(=O)O)CC1` (stereo not given), the clearance was 3.97 mL/min/kg and the fraction unbound was 0.75.
As to `O=C(O)CN(CCN(CC(=O)O)CC(=O)O)CC(=O)O`, the clearance is 1.09 mL/min/kg.
For `CN1C(=O)NC(=O)[C@@](C)(C2=CCCCC2)C1=O`, the clearance was 3.6 mL/min/kg.
With `C[C@H]1CN(C2CCC(C#N)(c3ccc(F)cc3)CC2)CC[C@]1(C(=O)O)c1ccccc1` (stereo not given in full), the clearance was 0.43 mL/min/kg.
Turning to `Cc1cc(C=CC#N)cc(C)c1Nc1ccnc(Nc2ccc(C#N)cc2)n1`, the Vd is 2.71 L/kg, the half-life was 44.5 h and the fraction unbound was 0.3.
As to `CCN1CCCC1CNC(=O)c1c(OC)ccc(Br)c1OC` (stereo not given), the clearance is 1.7 mL/min/kg.
As to `CC(C)(C)NC[C@@H](O)COc1nsnc1N1CCOCC1`, the clearance is 8.1 mL/min/kg.
For `C[C@H](CN1CC(=O)NC(=O)C1)N1CC(=O)NC(=O)C1`, the clearance was 4.42 mL/min/kg.
On to `CC(C)Nc1nc2cc(Cl)c(Cl)cc2n1[C@H]1O[C@@H](CO)[C@H](O)[C@@H]1O`, for which the Vd is 0.46 L/kg, the clearance is 0.79 mL/min/kg, the half-life is 4.32 h and the fraction unbound was 0.02.
`Nc1nc(NC2CC2)c2ncn([C@@H]3C=C[C@H](CO)C3)c2n1`: the clearance is 13.1 mL/min/kg.
Take `C[C@H](NCCc1ccc(O)cc1)[C@H](O)c1ccc(O)cc1`: the clearance was 8.67 mL/min/kg.
Turning to `CC(=O)OCC(CCn1cnc2cnc(N)nc21)COC(C)=O`, the clearance is 8 mL/min/kg.
With `CC(=O)N1CCN(c2ccc(OC[C@@H]3CO[C@](Cn4ccnc4)(c4ccc(Cl)cc4Cl)O3)cc2)CC1`, the clearance was 8.4 mL/min/kg.
With `O=C(OCCN1CCCCCC1)C(c1ccsc1)C1CCCCC1` (stereo not given), the clearance is 18.3 mL/min/kg.
Regarding `NC(=O)c1cc[n+](CC2=C(C(=O)O)N3C(=O)C(NC(=O)C(c4ccccc4)S(=O)(=O)[O-])[C@@H]3SC2)cc1` (stereo not given in full), the clearance is 1.92 mL/min/kg.
For the molecule `CCCCC[C@H](O)CC[C@@H]1C2Cc3cccc(OCC(=O)O)c3C[C@@H]2C[C@@H]1O` (stereo not given in full), the clearance was 7.14 mL/min/kg.
As to `Nc1nc(F)nc2c1ncn2[C@@H]1O[C@@H](COP(=O)(O)O)[C@@H](O)[C@@H]1O`, the clearance is 3.7 mL/min/kg.
With `C[C@@H]1C[C@H]2[C@@H]3C[C@H](F)C4=CC(=O)C=C[C@]4(C)[C@@]3(F)[C@H](O)C[C@]2(C)[C@@]1(O)C(=O)SCF`, the clearance is 15.6 mL/min/kg.
As to `OC[C@H]1O[C@@H](n2cnc3c2N=CNC[C@@H]3O)CC1O` (stereo not given in full), the clearance is 1.68 mL/min/kg.
On to `CN1c2c(oc(=O)n(-c3ccccn3)c2=O)-c2ccccc2S1(=O)=O`, for which the clearance is 0.05 mL/min/kg.
Regarding `CN(C)CCC[C@]1(c2ccc(F)cc2)OCc2cc(C#N)ccc21`, the clearance was 5.21 mL/min/kg.
In the case of `CC(=O)N(C[C@H](O)CO)c1c(I)c(C(=O)NCCO)c(I)c(C(=O)NC[C@H](O)CO)c1I`, the clearance was 1.44 mL/min/kg.
Turning to `CN=C1CN(O)C(c2ccccc2)=c2cc(Cl)ccc2=N1`, the Vd was 0.25 L/kg.
As to `CC(=O)Oc1cc(C(F)(F)F)ccc1C(=O)O`, the clearance is 10.7 mL/min/kg.
In the case of `COCC1=C(C(=O)O)N2C(=O)C(=NC(=O)C(NOC)c3csc(N)n3)[C@H]2SC1` (stereo not given in full), the clearance is 2.38 mL/min/kg.
Turning to `COC[C@H]1CN=C(c2ccccc2Cl)c2cc(Br)ccc2N1C`, the clearance is 11.1 mL/min/kg.
With `OCC(O)CO`, the clearance is 3.55 mL/min/kg.
Consider `Oc1ccc2c3c1O[C@@H]1[C@@H](O)CC[C@]4(O)[C@H](C2)N(CC2CCC2)CC[C@@]314`, for which the clearance is 29.7 mL/min/kg.
For `CSc1ccc(OCc2ncc([N+](=O)[O-])n2C)cc1`, the fraction unbound is 0.02.
In the case of `NC(=O)c1cc[n+](COC[n+]2ccccc2C=NO)cc1`, the clearance is 3.2 mL/min/kg.
